Reference: US20250376498A1, “FUSION PROTEINS COMPRISING AN IMPROVED GLP-1 RECEPTOR AGONIST AND USES THEREOF” (Guangzhou Innogen Pharmaceutical Group Co., Ltd., priority 2022, published 2025)

B1: YN-011: GLP-1 fusion protein of SEQ ID NO: 7: GLP-1 (A8G, G22E, R36G), linker peptide and IgG2/Fc domain (C222S, A330S, P331S) (protein)
chain: HGEGTFTSDVSSYLEEQAAKEFIAWLVKGGGSSGAPPPSGGGGSERKSCVECPPCPAPPVAGPSVFLFPPKPKDTLMISRTPEVTCVVVDVSHEDPEVQFNWYVDGVEVHNAKTKPREEQFNSTFRVVSVLTVVHQDWLNGKEYKCKVSNKGLPSSIEKTISKTKGQPREPQVYTLPPSREEMTKNQVSLTCLVKGFYPSDIAVEWESNGQPENNYKTTPPMLDSDGSFFLYSKLTVDKSRWQQGNVFSCSVMHEALHNHYTQKSLSLSPG

Experiments:
SH-SY5Y neuronal cells = test: TNF-α-induced damage in SH-SY5Y cells (Hoechst 33342 live cell staining); type: cell-based; conditions: 60 ng/ml TNF-α, 48 hours; YN-011 10, 100, 500 nM; GABA 1, 10, 100 μM; combination 100 μM GABA + 100 nM YN-011
Experimental: Digest the SH-SY5Y neuronal cells in a 10 cm culture dish using 0.25% trypsin to prepare a single-cell suspension. Seed the single-cell suspension into a 24-well plate. Place the culture plate in a CO2 incubator and pre-culture overnight at 37° C. with 5% CO2 to allow the cells to adhere. Treat the cells in each well with 20, 40, 60, or 80 ng/ml TNF-α using medium containing 5% FBS at 37° C. for 48 hours. Each drug treatment is performed in three replicate wells. Add the fluorescent dye Hoechst 33342 (Beyotime) at a dilution of 1:1000 to the wells, and incubate the plate at 37° C. for 10 minutes. Remove the culture medium, gently wash twice with PBS, and immediately take the plate to a fluorescence microscope for imaging (20× magnification). Capture 10 fields of view for each cell well and count the number of blue-stained positive cells in each field of view.
Please refer to section 8.7 for the experimental procedure, but the drug treatment in this experiment is different from that in section 8.7. In this experiment, the drug treatment is as follows: using medium containing 5% FBS, treat the cells in each well with 60 ng/ml TNF-α alone or co-treated with 10, 100, or 500 nM YN-011 at 37° C. for 48 hours. Each drug treatment is performed in three replicate wells. […]

HMC3 microglial cells = test: Inflammatory factor mRNA in HMC3 microglial cells induced by Aβ1-42 oligomers (qPCR); type: cell-based, human; conditions: for mRNA expression of IL-6 / mRNA expression of TNF-α: 10 μM Aβ1-42 oligomers, 48 hours, YN-011 100 nM and 500 nM; for mRNA expression of IL-6: GABA 10 μM and 100 μM (so in the source); for mRNA expression of TNF-α: GABA 100 μM, combination 100 μM GABA and 100 nM YN-011; for inflammatory cytokine mRNA expression: Aβ1-42 oligomers (figure legends)
Experimental: Under sterile conditions, dissolve the synthesized Aβ1-42 peptide (AnaSpec #AS-20276) in hexafluoroisopropanol (Mecklin #H811026) to obtain a 1 mM solution. Divide the solution into 1.5 ml sterile centrifuge tubes and evaporate the hexafluoroisopropanol in a vacuum evaporator. The dried peptide forms a film in the tubes and is stored at −20° C. for later use. Freshly prepare Aβ1-42 oligomers from the dried peptide film as follows: dissolve the dried peptide film in anhydrous DMSO to obtain a 5 mM solution, then dilute with cold cell culture basal medium to obtain a 100 µM stock solution. After incubating at 4° C. for 24 hours, use the stock solution for cell treatment.
Seed HMC3 human microglial cells into a 24-well plate. After overnight incubation at 37° C. with 5% CO2, treat the cells in each well with 10 μM Aβ1-42 oligomers alone or co-treated with 1, 10, or 100 μM GABA for 48 hours. Each drug treatment is performed in three replicate wells. After 48 hours of treatment, isolate total RNA from the cells in each well using 1 ml of Trizol (Invitrogen #15596026) following the manufacturer's instructions. Dissolve the RNA pellet in 20 μl of DEPC-treated water. Measure the RNA concentration and purity using a NanoDrop 2000. Convert RNA into cDNA using a reverse transcription kit (Yeasen #11141ES60). Prepare the PCR reaction as follows: 5 μl of PCR mix (Yeasen #10108ES03), 0.2 μl of forward primer, 0.2 μl of reverse primer, 1 μl of cDNA, and 3.6 μl of water. Perform qPCR on an Applied Biosystems 7500 real-time PCR system using the following thermal program: initial denaturation at 95° C. for 3 minutes, followed by 40 cycles of denaturation at 95° C. for 30 seconds, annealing at 60° C. for 30 seconds, and extension at 72° C. for 1 minute. Compare the relative mRNA expression of TNF-α and IL-6 between treated and untreated cells using the ΔΔCt method, normalized to the expression of the housekeeping gene RPLP0.
(§1) Please refer to section 8.17 for the experimental procedure, but the drug treatment in this experiment is different from that in section 8.17. In this experiment, the drug treatment is as follows: treat the cells in each well with 10 μM Aβ1-42 oligomers alone or co-treated with 10, 100, or 500 nM YN-011 for 48 hours. Each drug treatment is performed in three replicate wells.
as §1, with “µM” for “μM”, “100 μM GABA and/or 100” for “10, 100, or 500”

Molecule	TNF-α-induced damage in neuronal cells (Hoechst 33342 positive cells) (SH-SY5Y neuronal cells)	mRNA expression of IL-6 (HMC3 microglial cells)	mRNA expression of TNF-α (HMC3 microglial cells)	inflammatory cytokine mRNA expression (HMC3 microglial cells)
NCCCC(=O)O [GABA, γ-aminobutyric acid]	protective effect	significantly reduce	significantly reduces	reduction of inflammatory cytokine mRNA expression
B1	protective effect	significantly reduce	significantly reduce	reduction of inflammatory cytokine mRNA expression
